Patent US8217035B2, “Pyrimidine derivatives used as PI-3-kinase inhibitors” (Novartis AG, priority 2006, dated 2012)

Biological target: PI3 kinase alpha (Homo sapiens, UniProt P42336)
Test: PI3K ATP depletion assay (Biological Method 1, Assay 3; KinaseGlo luminescence)
Assay type: biochemical
Details: ATP depletion assay, Biological Method 1; read-out: PI3 Kinase Alpha, IC50
Protocol: The PI3 kinase alpha IC50 values shown in Table 1 were determined according to the ATP depletion assay as disclosed herein in Biological Method 1.
Assay 3: ATP Depletion Assay
Compounds to be tested are dissolved in DMSO and directly distributed into a black 384-well plate at 1.25 μL per well. To start the reaction, 25 μL of 10 nM PI3 kinase and 5 μg/mL 1-alpha-phosphatidylinositol (PI) are added into each well followed by 25 μL of 2 μM ATP. The reaction is performed until approx 50% of the ATP is depleted, and then stopped by the addition of 25 μL of KinaseGlo solution purchased from Promega. The stopped reaction is incubated for 5 minutes and the remaining ATP is then detected via luminescence.

PI3 kinase alpha, sequence (P42336 whole entry): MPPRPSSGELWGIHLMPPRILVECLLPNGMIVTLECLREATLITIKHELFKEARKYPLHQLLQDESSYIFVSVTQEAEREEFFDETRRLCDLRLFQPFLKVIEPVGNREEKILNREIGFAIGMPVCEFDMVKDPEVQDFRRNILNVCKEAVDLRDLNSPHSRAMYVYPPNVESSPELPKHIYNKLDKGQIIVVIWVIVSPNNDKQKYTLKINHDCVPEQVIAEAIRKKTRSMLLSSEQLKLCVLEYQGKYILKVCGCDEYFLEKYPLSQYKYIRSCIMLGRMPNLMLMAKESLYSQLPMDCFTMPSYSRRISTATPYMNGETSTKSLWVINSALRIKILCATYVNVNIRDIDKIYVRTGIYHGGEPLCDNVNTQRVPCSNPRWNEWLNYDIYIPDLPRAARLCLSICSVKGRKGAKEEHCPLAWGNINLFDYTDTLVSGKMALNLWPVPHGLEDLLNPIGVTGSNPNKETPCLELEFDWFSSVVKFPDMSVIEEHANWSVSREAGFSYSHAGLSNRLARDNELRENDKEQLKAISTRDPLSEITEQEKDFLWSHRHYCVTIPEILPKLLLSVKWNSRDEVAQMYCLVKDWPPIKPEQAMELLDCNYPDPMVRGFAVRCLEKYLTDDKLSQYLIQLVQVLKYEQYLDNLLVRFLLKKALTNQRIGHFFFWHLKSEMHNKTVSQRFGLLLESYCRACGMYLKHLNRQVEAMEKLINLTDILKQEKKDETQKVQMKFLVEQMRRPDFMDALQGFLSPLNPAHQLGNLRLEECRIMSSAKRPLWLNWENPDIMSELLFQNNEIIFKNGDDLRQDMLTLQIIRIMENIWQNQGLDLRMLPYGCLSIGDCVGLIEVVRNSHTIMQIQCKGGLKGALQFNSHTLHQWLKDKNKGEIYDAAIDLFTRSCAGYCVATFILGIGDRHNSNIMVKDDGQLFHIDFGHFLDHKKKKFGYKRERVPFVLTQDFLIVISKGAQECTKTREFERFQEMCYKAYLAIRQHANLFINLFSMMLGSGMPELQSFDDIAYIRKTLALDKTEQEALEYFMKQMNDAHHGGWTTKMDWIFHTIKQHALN
PI3 kinase alpha, sequence (P27986 whole entry partner): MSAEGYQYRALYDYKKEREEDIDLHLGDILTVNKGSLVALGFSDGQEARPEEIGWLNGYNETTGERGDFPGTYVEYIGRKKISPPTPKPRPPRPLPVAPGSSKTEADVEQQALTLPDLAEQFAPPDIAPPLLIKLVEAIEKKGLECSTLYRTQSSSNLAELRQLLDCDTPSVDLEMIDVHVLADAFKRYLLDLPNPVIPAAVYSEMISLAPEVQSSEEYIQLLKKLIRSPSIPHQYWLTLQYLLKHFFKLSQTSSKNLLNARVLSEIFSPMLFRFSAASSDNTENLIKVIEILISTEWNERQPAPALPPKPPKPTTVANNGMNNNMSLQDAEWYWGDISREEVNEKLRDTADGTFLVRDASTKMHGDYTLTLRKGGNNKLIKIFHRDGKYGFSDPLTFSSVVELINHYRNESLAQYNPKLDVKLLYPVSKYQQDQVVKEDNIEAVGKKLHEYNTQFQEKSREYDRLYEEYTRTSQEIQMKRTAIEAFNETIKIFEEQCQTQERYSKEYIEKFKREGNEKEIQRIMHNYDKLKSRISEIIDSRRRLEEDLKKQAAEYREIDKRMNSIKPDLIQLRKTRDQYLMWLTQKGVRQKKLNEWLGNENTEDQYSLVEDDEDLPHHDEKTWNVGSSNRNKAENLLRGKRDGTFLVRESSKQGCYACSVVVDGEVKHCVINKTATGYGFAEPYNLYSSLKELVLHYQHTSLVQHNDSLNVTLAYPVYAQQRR

`Nc1cc(C(F)(F)F)c(-c2cc(N3CCCOCC3)nc(N3CCOCC3)n2)cn1` [Compound 221] and `Nc1cc(C(F)(F)F)c(-c2cc(N3CCC(O)CC3)nc(N3CCOCC3)n2)cn1` [Compound 323] cannot be ordered by IC50: under 1 µM for the first, under 1 µM for the second.

`Nc1ccc(-c2cc(N3CCOc4ccccc43)nc(N3CCOCC3)n2)cn1` [Compound 387] and `COc1ccccc1CCNc1cc(-c2ccc(N)nc2)nc(N2CCOCC2)n1` [Compound 304] cannot be ordered by IC50: under 1 µM for the first, under 1 µM for the second.

`N#Cc1cc(N)ncc1-c1cc(N2CCOC(c3ccccc3)C2)nc(N2CCOCC2)n1` (stereo not drawn) [Compound 341] and `Nc1cc(C(F)(F)F)c(-c2cc(N3CCOC(c4ccc(F)cc4)C3)nc(N3CCOCC3)n2)cn1` (stereo not drawn) [Compound 335] cannot be ordered by IC50: under 1 µM for the first, under 1 µM for the second.

`Nc1ncc(-c2cc(NC3CCOCC3)nc(N3CCOCC3)n2)c(C(F)(F)F)n1` [Compound 321] and `Nc1cc(C(F)(F)F)c(-c2cc(Nc3ccc(OC4CCOC4)nc3)nc(N3CCOCC3)n2)cn1` (stereo not drawn) [Compound 268] cannot be ordered by IC50: under 1 µM for the first, under 1 µM for the second.

`N#Cc1ccc(Nc2cc(-c3cnc(N)cc3C(F)(F)F)nc(N3CCOCC3)n2)cc1` [Compound 283] and `Nc1cc(C(F)(F)F)c(-c2cc(Nc3ccc(-c4nn[nH]n4)cc3)nc(N3CCOCC3)n2)cn1` [Compound 281] cannot be ordered by IC50: under 1 µM for the first, under 1 µM for the second.

`Nc1ncc(-c2cc(NC(=O)[C@@H]3CCCO3)nc(N3CCOCC3)n2)cn1` [Compound 290] and `Nc1cc(-c2cnc(N)nc2)nc(N2CCOCC2)n1` [Compound 301] cannot be ordered by IC50: under 1 µM for the first, under 1 µM for the second.

`COc1ccc(CCNc2cc(-c3ccc(N)nc3)nc(N3CCOCC3)n2)cc1` [Compound 302] and `Nc1ccc(-c2cc(Nc3ccc(F)cc3)nc(N3CCOCC3)n2)cn1` [Compound 305] cannot be ordered by IC50: under 10 µM for the first, under 1 µM for the second.

`Nc1cc(C(F)(F)F)c(-c2cc(-c3cncc(S(=O)(=O)CCO)c3)nc(N3CCOCC3)n2)cn1` [Compound 265] and `CS(=O)(=O)c1cncc(-c2cc(-c3cnc(N)cc3C(F)(F)F)nc(N3CCOCC3)n2)c1` [Compound 266] cannot be ordered by IC50: under 1 µM for the first, under 1 µM for the second.

`CN1CCN(C(=O)c2cc(-c3cnc(N)nc3)nc(N3CCOCC3)n2)CC1` [Compound 235] and `CN1CCC(Oc2ccc(-c3cc(-c4cnc(N)nc4)nc(N4CCOCC4)n3)cn2)CC1` [Compound 277] cannot be ordered by IC50: under 1 µM for the first, under 1 µM for the second.

`Nc1cc(C(F)(F)F)c(-c2cc(N3CC[C@H](F)C3)nc(N3CCOCC3)n2)cn1` [Compound 332] and `Nc1cc(C(F)(F)F)c(-c2cc(N3CCOC(C(=O)O)C3)nc(N3CCOCC3)n2)cn1` (stereo not drawn) [Compound 333] cannot be ordered by IC50: under 1 µM for the first, under 1 µM for the second.

`C[C@@H]1CN(c2cc(-c3cnc(N)cc3C(F)(F)F)nc(N3CCOCC3)n2)C[C@H](C)O1` [Compound 327] and `Nc1cc(Cl)c(-c2cc(Nc3ccncc3C(F)(F)F)nc(N3CCOCC3)n2)cn1` [Compound 219] cannot be ordered by IC50: under 1 µM for the first, under 1 µM for the second.

`Nc1cc(C(F)(F)F)c(-c2cc(Nc3cccc(CN4CCOCC4)c3)nc(N3CCOCC3)n2)cn1` [Compound 314] and `Nc1cc(C(F)(F)F)c(-c2cc(-c3cncc(CN4CCCCC4)c3)nc(N3CCOCC3)n2)cn1` [Compound 263] cannot be ordered by IC50: under 1 µM for the first, under 1 µM for the second.

`Nc1ccc(-c2cc(Nc3ccnc4c(C(F)(F)F)cccc34)nc(N3CCOCC3)n2)cn1` [Compound 383] and `Nc1ccc(-c2cc(Nc3cc(Cl)ccn3)nc(N3CCOCC3)n2)cn1` [Compound 349] cannot be ordered by IC50: under 1 µM for the first, under 1 µM for the second.

`Nc1ccc(-c2cc(Nc3ccc4c(c3)OCC(=O)N4)nc(N3CCOCC3)n2)cn1` [Compound 384] and `Nc1ccc(-c2cc(Nc3cnc4ccc(O)cc4c3)nc(N3CCOCC3)n2)cn1` [Compound 367] cannot be ordered by IC50: under 1 µM for the first, under 1 µM for the second.

`CN(C)CCOc1ccc(-c2cc(-c3cnc(N)nc3)nc(N3CCOCC3)n2)cn1` [Compound 223] and `N#Cc1cc(N)ncc1-c1cc(-c2cnc(N)cc2C#N)nc(N2CCOCC2)n1` [Compound 317] cannot be ordered by IC50: under 1 µM for the first, under 1 µM for the second.

System: A2780 ovarian cancer cells
Test: Cellular proliferation in A2780 cells, Cell Titer Glo (Biological Method 4)
Assay type: cell-based
Details: Homo sapiens; ovarian cancer cell line A2780, Biological Method 4
Protocol: In addition, many of the compounds of Table 1 were tested to determine their inhibitory activity in a cellular proliferation assay according to Biological Method 4.
The ability of the compounds of the invention to inhibit cellular proliferation were determined by using Cell Titer Glo, a commercially available assay from Promega Corporation. A2780 ovarian cancer cells were seeded in TC treated 96-well plates at a density of 1,000 per well in DMEM, 10% FBS, 1% Sodium Pyruvate, and 1% Penicillin Streptomycin for a minimum of 2 hrs prior to addition of compound. For each concentration of test compound, 2 μl (500×) aliquots of compound or 100% DMSO diluted in 500 μl of culture medium for 2× concentration then diluted 1× on the Cells. Cells were incubated for 72 hrs at 37° C., 5% CO2. After the 72 hour incubation, Cell Titer Glo reagent is added to determine number of viable cells remaining after exposure to the compound, and the EC50 value was calculated. The assay was performed according to the manufacturer's instruction (Promega Corporation, Madison, Wis. USA). Each experimental condition was performed in duplicate.

`Nc1cc(C(F)(F)F)c(-c2cc(N3CCCOCC3)nc(N3CCOCC3)n2)cn1` [Compound 221] and `Nc1cc(C(F)(F)F)c(-c2cc(N3CCC(O)CC3)nc(N3CCOCC3)n2)cn1` [Compound 323] cannot be ordered by EC50: under 10 µM for the first, under 25 µM for the second.

`Nc1ccc(-c2cc(N3CCOc4ccccc43)nc(N3CCOCC3)n2)cn1` [Compound 387] and `COc1ccccc1CCNc1cc(-c2ccc(N)nc2)nc(N2CCOCC2)n1` [Compound 304] cannot be ordered by EC50: under 10 µM for the first, under 25 µM for the second.

`N#Cc1cc(N)ncc1-c1cc(N2CCOC(c3ccccc3)C2)nc(N2CCOCC2)n1` (stereo not drawn) [Compound 341] and `Nc1cc(C(F)(F)F)c(-c2cc(N3CCOC(c4ccc(F)cc4)C3)nc(N3CCOCC3)n2)cn1` (stereo not drawn) [Compound 335] cannot be ordered by EC50: under 10 µM for the first, under 10 µM for the second.

`Nc1ncc(-c2cc(NC3CCOCC3)nc(N3CCOCC3)n2)c(C(F)(F)F)n1` [Compound 321] and `Nc1cc(C(F)(F)F)c(-c2cc(Nc3ccc(OC4CCOC4)nc3)nc(N3CCOCC3)n2)cn1` (stereo not drawn) [Compound 268] cannot be ordered by EC50: under 10 µM for the first, under 10 µM for the second.

`N#Cc1ccc(Nc2cc(-c3cnc(N)cc3C(F)(F)F)nc(N3CCOCC3)n2)cc1` [Compound 283] and `Nc1cc(C(F)(F)F)c(-c2cc(Nc3ccc(-c4nn[nH]n4)cc3)nc(N3CCOCC3)n2)cn1` [Compound 281] cannot be ordered by EC50: under 10 µM for the first, under 25 µM for the second.

`Nc1ncc(-c2cc(NC(=O)[C@@H]3CCCO3)nc(N3CCOCC3)n2)cn1` [Compound 290] and `Nc1cc(-c2cnc(N)nc2)nc(N2CCOCC2)n1` [Compound 301] cannot be ordered by EC50: under 10 µM for the first, under 25 µM for the second.

`COc1ccc(CCNc2cc(-c3ccc(N)nc3)nc(N3CCOCC3)n2)cc1` [Compound 302] and `Nc1ccc(-c2cc(Nc3ccc(F)cc3)nc(N3CCOCC3)n2)cn1` [Compound 305] cannot be ordered by EC50: under 25 µM for the first, under 10 µM for the second.

`Nc1cc(C(F)(F)F)c(-c2cc(-c3cncc(S(=O)(=O)CCO)c3)nc(N3CCOCC3)n2)cn1` [Compound 265] and `CS(=O)(=O)c1cncc(-c2cc(-c3cnc(N)cc3C(F)(F)F)nc(N3CCOCC3)n2)c1` [Compound 266] cannot be ordered by EC50: under 10 µM for the first, under 10 µM for the second.

`CN1CCN(C(=O)c2cc(-c3cnc(N)nc3)nc(N3CCOCC3)n2)CC1` [Compound 235] and `CN1CCC(Oc2ccc(-c3cc(-c4cnc(N)nc4)nc(N4CCOCC4)n3)cn2)CC1` [Compound 277] cannot be ordered by EC50: under 10 µM for the first, under 10 µM for the second.

`Nc1cc(C(F)(F)F)c(-c2cc(N3CC[C@H](F)C3)nc(N3CCOCC3)n2)cn1` [Compound 332] and `Nc1cc(C(F)(F)F)c(-c2cc(N3CCOC(C(=O)O)C3)nc(N3CCOCC3)n2)cn1` (stereo not drawn) [Compound 333] cannot be ordered by EC50: under 1 µM for the first, under 25 µM for the second.

`C[C@@H]1CN(c2cc(-c3cnc(N)cc3C(F)(F)F)nc(N3CCOCC3)n2)C[C@H](C)O1` [Compound 327] and `Nc1cc(Cl)c(-c2cc(Nc3ccncc3C(F)(F)F)nc(N3CCOCC3)n2)cn1` [Compound 219] cannot be ordered by EC50: under 10 µM for the first, under 10 µM for the second.

`Nc1cc(C(F)(F)F)c(-c2cc(Nc3cccc(CN4CCOCC4)c3)nc(N3CCOCC3)n2)cn1` [Compound 314] and `Nc1cc(C(F)(F)F)c(-c2cc(-c3cncc(CN4CCCCC4)c3)nc(N3CCOCC3)n2)cn1` [Compound 263] cannot be ordered by EC50: under 25 µM for the first, under 10 µM for the second.

`Nc1ccc(-c2cc(Nc3ccnc4c(C(F)(F)F)cccc34)nc(N3CCOCC3)n2)cn1` [Compound 383] and `Nc1ccc(-c2cc(Nc3cc(Cl)ccn3)nc(N3CCOCC3)n2)cn1` [Compound 349] cannot be ordered by EC50: under 10 µM for the first, under 25 µM for the second.

`Nc1ccc(-c2cc(Nc3ccc4c(c3)OCC(=O)N4)nc(N3CCOCC3)n2)cn1` [Compound 384] and `Nc1ccc(-c2cc(Nc3cnc4ccc(O)cc4c3)nc(N3CCOCC3)n2)cn1` [Compound 367] cannot be ordered by EC50: under 10 µM for the first, under 10 µM for the second.

`CN(C)CCOc1ccc(-c2cc(-c3cnc(N)nc3)nc(N3CCOCC3)n2)cn1` [Compound 223] and `N#Cc1cc(N)ncc1-c1cc(-c2cnc(N)cc2C#N)nc(N2CCOCC2)n1` [Compound 317] cannot be ordered by EC50: under 10 µM for the first, under 10 µM for the second.
